# Earlier results in patent US20230218596A1 (MEREO BIOPHARMA 4 LIMITED, priority 2020, published 2023).
# pIC50: −log10 of the molar value. Like-named read-outs stand apart in the source and are kept apart here.
# Tests used:
# ARDS = details: experimental models of ARDS; cited from earlier work
# cystic fibrosis = cystic fibrosis patients, 4-week duration; cited from earlier work
# bronchiectasis = bronchiectasis patients, 4-week duration; cited from earlier work
# NE [1] = target: T1, NE (Homo sapiens, UniProt P08246); details: cell-associated assay; cited from earlier work
# NE [2] = target: T1, NE; details: whole-blood assay; cited from earlier work
# [3] = system: NE from other species, including mice; details: cited from earlier work
# human NE = target: T2, human NE (Homo sapiens, UniProt P08246); details: cited from earlier work
# T2 sequence (P08246 30-267): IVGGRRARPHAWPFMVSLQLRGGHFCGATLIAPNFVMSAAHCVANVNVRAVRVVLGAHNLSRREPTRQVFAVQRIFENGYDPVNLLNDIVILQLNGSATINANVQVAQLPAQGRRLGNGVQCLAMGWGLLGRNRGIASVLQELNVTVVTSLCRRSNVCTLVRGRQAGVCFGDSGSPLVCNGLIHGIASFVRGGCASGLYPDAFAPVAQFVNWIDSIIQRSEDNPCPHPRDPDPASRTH
smiles,measurement,setting,value
"Cc1c(-c2ccnn2C)cc(C(=O)NCc2ccc(S(C)(=O)=O)cn2)c(=O)n1-c1cccc(C(F)(F)F)c1 [Alvelestat, N-{[5-(methanesulfonyl)pyridin-2-yl]methyl}-6-methyl-5-(1-methyl-1H-pyrazol-5-yl)-2-oxo-1-[3-(trifluoromethyl)phenyl]-1,2-dihydropyridine-3-carboxamide]",lung inflammation and injury,ARDS,protected the lung from inflammation and injury
same,biomarkers of elastase activity and inflammation,cystic fibrosis,significant decrease
same,lung function and inflammation,bronchiectasis,clinically significant improvement
same,pIC50,NE [1],7.32
same,pIC50,NE [2],7.36
same,crossover potency for NE from other species,[3],good crossover potency
same,reversibility of inhibition,human NE,rapidly reversible
